{
  "source": "patent US12150750B2",
  "about": "“D-glucose and its analogs as tracers to assess the glucose transporter function on blood-cerebrospinal fluid barrier and the functioning of the brain lymphatic system” (The Johns Hopkins University, priority 2020, dated 2024)",
  "key": {"[1]": {"settings": "literature reference 28; cited from earlier work"}, "[2]": {"assay": "DGE onVDMP MRI at 3 T of D-glucose uptake and clearance in CSF of WT and APP/PS1 mice", "assay_type": "in vivo, mouse", "settings": "for ΔS at 2 min (CSF DGE signal difference) / ΔS at 30 min (CSF DGE signal difference): n=5", "description": "All animal experiments were approved by the Animal Ethics Committee and followed the institutional guidelines of Institutional Laboratory Animal Research Unit of City University of Hong Kong. […] APP/PS1 mice are double transgenic mice expressing a chimeric mouse/human amyloid precursor protein (Mo/HuAPP695swe) and a mutant human presenilin 1 (PS1-dE9), both directed to CNS neurons. Both mutations are associated with early-onset AD. Another six 6M WT mice were used for the control experiments.\nThe onVDMP sequence diagram is shown in (a) of FIG. 3. By setting a different binomial pulse number N, the saturation length is adjusted to image the parenchyma and CSF, respectively. In this study, the saturation length was set to 60 ms for imaging parenchyma and 900 ms for imaging CSF. DGE experiments on both parenchyma and CSF images are acquired in an alternate way in some embodiments during one acquisition, similar to the experiments in example 1.\nWhen carrying out the MRI experiments on mice, anesthesia was induced and maintained using isoflurane at 2% and 1.5%, respectively. The isoflurane was mixed with 90% oxygen generated by an oxygen concentrator. The flow rate of oxygen generator was set to 2 liter per minute (LPM) and kept unchanged during the whole experiment. Mice were placed in a horizontal bore 3 T Bruker BioSpec animal scanner (Bruker, Germany). A 82-mm-diameter quadrature coil and a 23-mm-diameter mouse brain surface coil were used for transmitting and receiving signal, respectively. A catheter was placed in the tail vein for glucose administration before placing the animal in the scanner. A bolus of 0.15 mL filtered 50% D-glucose was injected into the mouse body through the tail vein over one minute (speed: 0.15 ml/min) using a MRI-compatible syringe pump (Harvard Apparatus). Mouse body temperature was maintained at 37° C. using a warming pad. Respiration and body temperature were continuously monitored using an MRI-compatible monitor system (SA Instruments, Inc). Before DGE acquisition, the B0 field over the mouse brain was shimmed using field-mapping and second-order shimming. The read-out module was rapid acquisition with refocused echoes (RARE) with TR/TE=2.5 s/4.7 ms, RARE factor=32, centric encoding, slice thickness=2 mm, a matrix size of 96×96 within a field of view (FOV) of 20×20 mm^2, resulting in a time resolution of 15 s for each pair of images (7.5 s for parenchyma and 7.5 s for CSF). A total number of 550 images were acquire for each DGE module, thus leading to a total scanning time of 1 h8 min 45 s. The glucose injection was started at 8 min 45 s and lasted for 1 min. […] The image slice was positioned based on a collected sagittal image of the mouse brain with the position of the coronal image slice set to −1.4 mm with respect to the anterior commissure (AC).\nAll image processing and data analyses were performed using custom written code in MATLAB (R2018b, MathWorks, USA). When calculating DGE kinetic curves, baseline signal Sbase was generated by averaging the 30 baseline images. Since the total number of DGE images was large ([…] for each mouse), every set of 15 images were averaged to visualize the dynamic process of glucose changes. Then Eq. 5 was used for each time point to construct the DGE kinetic curves after glucose administration.\nThe DGE data of CSF were fitted by a simple gamma variate model(66,67) for only the first 20 mins after glucose injection, giving an uptake rate and an estimate of the initial rate of clearance:\nwhere A is an amplitude modulation parameter, μin represents the glucose uptake rate, μout represents the initial rate of clearance. […] The maximum signal that CSF DGE reached is directly extracted in some embodiments after fitting as Smax=max(ΔS′CSF(t)). For both parenchymal and CSF DGE curves, fitting was achieved using the built-in nonlinear least-squares curve fitting function in MATLAB. […]"}, "[3]": {"assay": "Validation of glucose uptake in brain using an MRS method", "assay_type": "in vivo", "settings": "mouse, intravenous, BALB/c mice, read-out: half-life time of glucose uptake measured by MRS", "protocol": "(§1) The study was carried out under the approval of Johns Hopkins University animal care and use. Four female Tau4RΔK (Tau) mice (49) with an age of 7-8 months and four female age-matched C57BL/6J mice were used for the AD study. Two age-matched BALB/c mice were used for the validation of glucose uptake using an MRS method. The Tau mice were bred at Johns Hopkins University and the onset of tau tangles starts at the age of six months (49). A catheter was placed in the tail vein for glucose administration before placing the animal in the scanner."}, "[4]": {"assay": "Dynamic glucose enhanced (DGE) onVDMP MRI at 11.7 T of glucose uptake in brain parenchyma and CSF of WT and Tau mice", "assay_type": "in vivo, mouse", "settings": "for fitted ADGE (amplitude of glucose uptake at equilibrium) of parenchyma: i.v. bolus 0.15 mL 50% glucose, n=4; for half-life: female, mouse, 0.15 mL of 50% w/w glucose (0.5 g/mL)", "protocol": "as §1\nAll MRI experiments were performed on a horizontal bore 11.7 T Bruker Biospec system (Bruker, Ettlingen, Germany) equipped with actively shielded gradients, with a maximum strength of 74 Gauss/cm. A 72 mm quadrature volume resonator was used as a transmitter and a 2×2 mouse phased array coil for acquisition. All animals were anesthetized using 2% isoflurane in medical air, followed by 1% to 1.5% isoflurane for maintenance during the MRI scan. The mouse head was positioned using a bite bar and two ear pins. During the MRI scan, mice were placed on a water-heated animal bed. Respiratory rate was monitored via a pressure sensor (SAII, Stony Brook, NY, USA) and maintained at 40-60 breaths per minute. The B0 field over the mouse brain was adjusted using field-mapping and second-order shimming.\nThe MRI sequence used for monitoring the glucose uptake in brain and CSF was onVDMP, illustrated in (a) of FIG. 3. The duration of each binomial pulse pair was 3 ms, and the length of a saturation module was proportional to the total number of binomial pulse pairs. Two independent onVDMP sequences with different saturation-module lengths (i.e. 36 ms and 300 ms) were repeated in an interleaved fashion to detect the glucose uptake in brain parenchyma and CSF, respectively. Other imaging parameters were: TR/TE=2.5 s/5 ms, RARE factor=23, slice thickness=1 mm, a matrix size of 196×128 within a FOV of 20×10 mm^2. The scan time for each onVDMP experiment was fixed to 7.5 s and the dynamic glucose enhanced (DGE) images were acquired continuously for 27.5 min. A bolus of 0.15 mL 50% w/w glucose (0.5 g/mL, clinical-grade dextrose, Hospira, Lake Forest, IL) was given at 10th min of the dynamic experiment through the tail vein using a syringe pump (Harvard Apparatus Holliston, MA, USA). The first five minutes of dynamic scan were used as dummy scans to make sure system reached steady-state.\nAccording to R1ρ theory (50-52), the water signal intensity (S) after applying an onVDMP sequence is expressed in some embodiments as: S=S0e^−T^onvDMP^R^1ρ (1)\nwhere S0 is the water signal intensity without saturation. Because ΔR1ρ induced by glucose infusion is relatively small (41-43,53,54), the normalized change of water signal intensity ΔZ is approximated in some embodiments as: ΔZ=(Sbase−S)/Sbase=1−e^−T^onvDMP^ΔR^1ρ≈TonVDMPΔR1ρ (2)\nwhere Sbase is the referenced water signal intensity. In this study, the average of water signal intensity before glucose infusion was used as Sbase. The dynamic images are calculated in some embodiments by averaging N images within a certain time period (55): Save=Σn=1^NΔZ(n)/N (3)\nTo correct for motion between DGE images, image registration was applied using Medical Imaging Registration Toolbox (MIRT) (56). The regions of interest (ROIs) were selected by hand with the reference to mouse brain atlas (https://mouse.brain-map.org).\nThe glucose uptake curves measured by DGE MRI are fitted using exponential functions in some embodiments to allow quantitative comparison: ΔDGE(t)=ADGE(1−e^−t/T^u,DGE) (4)\nwhere ΔDGE(t) is the DGE signal difference determined by onVDMP MRI. Tu,DGE is the glucose uptake lifetime. The half-life time of glucose uptake was calculated by the equation: Thalf=Tu*0.6931. ADGE represents the amplitudes of glucose uptake at equilibrium measured by onVDMP. […]"}},
  "data": [
    {"smiles": "O=C[C@H](O)[C@@H](O)[C@H](O)[C@H](O)CO", "note": "[D-glucose]", "values": [
      {"measurement": "half-life time of glucose uptake, previous 13C MRS measurements", "setting": "[1]", "value": "5.10 ± 0.11", "unit": "min"},
      {"measurement": "ΔS at 2 min (CSF DGE signal difference)", "setting": "[2]; APP/PS1 mice 6M", "value": "12.70±2.30", "unit": "%"},
      {"measurement": "ΔS at 30 min (CSF DGE signal difference)", "setting": "[2]; APP/PS1 mice 6M", "value": "11.84±4.13", "unit": "%"},
      {"measurement": "ΔS at 2 min (CSF DGE signal difference)", "setting": "[2]; WT mice 6M, i.v. bolus 0.15 mL 50% D-glucose", "value": "14.56±2.86", "unit": "%"},
      {"measurement": "ΔS at 30 min (CSF DGE signal difference)", "setting": "[2]; WT mice 6M", "value": "3.18±2.95", "unit": "%"},
      {"measurement": "D-glucose uptake rate μin, WT versus APP/PS1", "setting": "[2]; mouse, in vivo", "value": "no significant difference"},
      {"measurement": "Smax (maximum CSF DGE signal), APP/PS1 versus WT", "setting": "[2]; mouse, in vivo", "value": "significantly lower"},
      {"measurement": "washout initial rate μout of D-glucose in CSF, APP/PS1 compared to WT", "setting": "[2]; mouse, in vivo", "value": "significantly slower"},
      {"measurement": "half-life", "setting": "[3]", "value": "4.16 ± 0.69", "unit": "min"},
      {"measurement": "fitted ADGE (amplitude of glucose uptake at equilibrium) of parenchyma", "setting": "[4]; Tau4RΔK mice, cortex", "value": "1.70±1.33", "unit": "%"},
      {"measurement": "CSF ADGE", "setting": "[4]; Tau mice, CSF", "value": "6.72±2.22", "unit": "%"},
      {"measurement": "time at which DGE signal reached a plateau", "setting": "[4]; Tau mice, CSF", "value": "around 25 min"},
      {"measurement": "glucose uptake in the cortex (DGE signal intensity)", "setting": "[4]; Tau mice, cortex", "value": "1.6±1.3", "unit": "%"},
      {"measurement": "fitted ADGE (amplitude of glucose uptake at equilibrium) of parenchyma", "setting": "[4]; WT mice (C57BL/6J), cortex", "value": "5.42±0.70", "unit": "%"},
      {"measurement": "CSF ADGE", "setting": "[4]; WT mice, CSF", "value": "7.03±2.12", "unit": "%"},
      {"measurement": "drop of DGE signal from the peak value at 27.5 minutes", "setting": "[4]; WT mice, CSF", "value": "about 1.5±0.5%"},
      {"measurement": "peak value of DGE signal", "setting": "[4]; WT mice, CSF", "value": "6±0.3", "unit": "%"},
      {"measurement": "time at which DGE signal plateaued", "setting": "[4]; WT mice, CSF", "value": "around 10 min"},
      {"measurement": "time at which DGE signal reaches a maximum before decay", "setting": "[4]; WT mice, CSF", "value": "around 15 minutes"},
      {"measurement": "glucose uptake in the cortex (DGE signal intensity)", "setting": "[4]; WT mice, cortex", "value": "4.3±1.3", "unit": "%"},
      {"measurement": "half-life", "setting": "[4]; C57BL/6J, brain parenchyma (cortex), iv, WT mice, cortex, read-out: uptake half-life time of parenchyma", "value": "4.71 ± 1.03", "unit": "min"},
      {"measurement": "half-life", "setting": "[4]; C57BL/6J, intravenous, brain tissue of WT mice, as restated in discussion, read-out: half-life time of glucose uptake obtained by the onVDMP method", "value": "4.71 ± 1.18", "unit": "min"},
      {"measurement": "half-life", "setting": "[4]; C57BL/6J, iv, WT mice, CSF, read-out: uptake half-life time of CSF", "value": "1.24 ± 0.24", "unit": "min"},
      {"measurement": "half-life", "setting": "[4]; Tau4RΔK, brain parenchyma (cortex), iv, Tau mice, cortex, read-out: uptake half-life time of parenchyma", "value": "5.14 ± 0.3", "unit": "min"},
      {"measurement": "half-life", "setting": "[4]; Tau4RΔK, iv, Tau mice, CSF, read-out: uptake half-life time of CSF", "value": "7.8 ± 1.14", "unit": "min"},
      {"measurement": "time at which glucose uptake reaches a plateau", "setting": "[4]; parenchymal ROI (cortex), both WT and Tau mice", "value": "about 20 min"}
    ]}
  ]
}
